Patent publication US20110086802A1, “METHODS TO INCREASE PERMEABILITY OF CORNEAL EPITHELIUM AND DESTABILIZE STROMAL COLLAGEN FIBRIL NETWORK” (priority 2008, published 2011)
Where a name gives a salt, the structure may show the parent alone.

Key:
[1] = system: feline cornea; assay: Corneal Hysteresis, Feline Study #1 (Reichert Ocular Response Analyzer); format: in vivo, cat; set-up: Corneal Hysteresis (CH): unit not given here
Method: Cats were placed in three treatment groups. One eye from two cats were untreated controls. All treatment solutions were administered using an applicator to localize exposure to the central corneal surface. The applicator used to apply solutions to the corneal surface was similar in design to that described in the co-pending provisional application entitled “APPARATUS TO IMPROVE LOCALIZED CONCENTRATION OF FLUIDS IN OCULAR ENVIRONMENTS” to Bruce DeWoolfson and Michael Luttrell, provisional application No. 61/064,731, filed Mar. 24, 2008, incorporated herein by reference in its entirety. Two eyes was treated with Proparacaine HCl, followed by treatment with 0.5M sodium phosphate buffer (pH 8.35), then with 3 mg of glutaric anhydride dissolved in 0.6 mL of sodium phosphate buffer, then with sodium phosphate buffer, followed by 1.5 μL of acetic anhydride diluted in 0.6 mL of sodium phosphate buffer, a second treatment with 1.5 μL of acetic anhydride in 0.6 mL of sodium phosphate buffer, a buffer rinse and finally treatment with 0.6 mL of human recombinant decorin (4.47 mg/mL).
Two eyes were treated as above but without a final treatment with decorin solution. All eyes were clinically evaluated immediately post-treatment. Three days following treatment, eyes were enucleated and the corneas removed, placed in formalin containing Cupromeronic blue.
Measurements of Corneal Hysteresis (CH) in the animals treated in Example 2. Corneal Hysteresis is a measure of the biomechanical strength of the cornea and is measured using the Reichert Ocular Response Analyzer. The Reichert Ocular Response Analyzer utilizes a dynamic bi-directional applanation process to measure the biomechanical properties of the cornea and the Intraocular Pressure of the eye. The basic output of the measurement process is a Goldmann-correlated pressure measurement (IOPG), and a new measure of corneal tissue properties called Corneal Hysteresis (CH).

[2] = system: feline cornea; assay: Corneal Hysteresis, Feline Study #2 (Reichert Ocular Response Analyzer); format: in vivo, cat; set-up: Corneal Hysteresis (CH): unit not given here
Method: A second study was conducted to examine the effects of acylation on “softening” or destabilizing corneal structural integrity using the Reichert Ocular Response Analyzer. Five subject animals were included in this study. One eye of each animal was treated with the contralateral eye serving as the control. For three animal subjects treatment eyes were evaluated for corneal hysteresis using the Reichert Ocular Response Analyzer before treatment and then after treatment with Proparacaine HCL, acetic anhydride diluted in sodium phosphate solution at a pH of 8.3-8.5, and decorin. For two animal subjects, no acylation agent was applied to the cornea. Instead, a 4 mm trephine was used to penetrate the corneal epithelium to provide a track for decorin penetration. Corneal hysteresis results are shown below in Table 2.

[3] = system: epithelial cell junctures of human donor corneal tissue; assay: Confocal microscopy of fluorescent-tagged decorin penetration into donor cornea; format: in vitro ADME; conditions: for disruption of epithelial cell junctures permitting diffusion of human recombinant decorin: human donor cornea, agent applied 30 seconds to central cornea by applicator before fluorescent-tagged decorin
Description: Confocal Microscopy of glutaric anhydride treated cornea. Four donor corneas were obtained from Insight Biomed (Minneapolis, Minn.). All cornea tested negative for viral contamination. Corneas were rejected for transplantation due to storage expiration, low endothelial cell counts or other factors not related to epithelial cell integrity and stromal structure. All corneas were examined by slit-lamp microscopy for epithelial cell integrity. Corneas were stored in Optisol (Bausch & Lomb) for storage. Confocal microscopy was conducted at the Department of Surgical Research, Dartmouth-Hitchcock Medical Center, Lebanon, N.H. Two corneas were untreated controls and two were treated with glutaric anhydride followed by application of fluorescent-tagged human recombinant decorin. […] Fluorescent-tagged decorin was prepared by reacting decorin with Oregon Green 488 using a labeling kit from Molecular Probes.
All corneas were placed on a convex silicone pad and secured with pins. This allowed exposure to the corneal surface in a fixed position. All treatment solutions were administered using an applicator to localize exposure to the central corneal surface. Control cornea were treated with Proparacaine HCl for 1 minute followed by treatment with 0.5 mL of 0.2M sodium phosphate buffer (pH 8.3-8.5) for 30 seconds, 0.5 mL of saline rinse for 30 seconds, and then 0.1 mL of fluorescent-tagged human recombinant decorin. T reated cornea were treated with Proparacaine HCl for 1 minute, followed by treatment with 0.5 mL of 0.2M sodium phosphate buffer (pH 8.3-8.5) for 30 seconds, glutaric anhydride (dissolved immediately before application in sodium phosphate buffer (pH 8.3-8.5) at 5 mg/mL) for 30 seconds, saline rinsed, and then treated with 0.1 mL of fluorescent-tagged human recombinant decorin. Control and treated corneas were examined for decorin diffusion into the stroma using the Zeis confocal microscope (Model LSM 510 Meta; C apo 40×, NA=1.2, Thornwood, N.Y.).
Confocal Microscopy of acetic anhydride treated cornea. The protocol was the same as that described above for glutaric anhydride treatment. All treatment solutions were administered using an applicator to localize exposure to the central corneal surface. The applicator used to apply solutions to the corneal surface was similar in design to that described in the co-pending provisional application entitled “APPARATUS TO IMPROVE LOCALIZED CONCENTRATION OF FLUIDS IN OCULAR ENVIRONMENTS” to Bruce DeWoolfson and Michael Luttrell, provisional application No. 61/064,731, filed Mar. 24, 2008, incorporated herein by reference in its entirety. Control cornea were treated with Proparacaine HCl for 1 minute followed by treatment with 0.5 mL of 0.2M sodium phosphate buffer (pH 8.3-8.5) for 30 seconds, 0.5 mL of saline rinse for 30 seconds, and then 0.1 mL of fluorescent-tagged human recombinant decorin. Treated cornea were treated with Proparacaine HCl for 1 minute, followed by treatment with 0.5 mL of 0.3M sodium phosphate buffer (pH 8.3-8.5) for 30 seconds, acetic anhydride (3 μL) (diluted with 0.3M sodium phosphate buffer (pH 8.3-8.5) immediately before application) for 30 seconds, saline rinsed, and then treatment with 0.1 mL of fluorescent-tagged human recombinant decorin. Control and treated corneas were examined for decorin diffusion into the stroma using the Zeis confocal microscope (Model LSM 510 Meta; C apo 40×, NA=1.2, Thornwood, N.Y.).

[4] = system: corneal epithelium; conditions: cited from earlier work
[5] = system: stromal collagen fibers; assay: Transmission electron microscopy of decorin-treated cat cornea (first study); format: in vivo; conditions: cat eyes exposed to 50 μg decorin for 1, 3 or 5 days, no applicator; versus control cornea
Method: The following study was conducted at the Department of Surgical Research, Dartmouth-Hitchcock Medical Center, Lebanon, N.H. Five adult female cats were included in the study. All animals procured from Liberty Laboratories and were identified by ear tattoo. Ocular toxicity was determined by slit-lamp examination and measurement of endothelial cell structure. Decorin penetration into the corneal stroma was determined utilizing transmission electron microscopy. Cornea treated with decorin were reacted with Quinolinic Blue Stain (Cupromeronic blue) in buffered formalin. This reagent stains small proteoglycan structures such as decorin.
Cats were placed in three treatment groups. One eye from each group was treated with decorin. Three eyes were controls. Treated eyes were exposed to 50 μg of decorin for 1 day, 3 days or 5 days. Decorin solution was administered to the corneal using a sterile transfer pipet. An applicator was not used to localize the solution to the central corneal surface. All eyes were clinically evaluated immediately post-treatment and at days 2, 3, 5, and 8. One month after final treatment, eyes were reexamined and then enucleated. Each eye was sectioned. One half was placed in Formalin for subsequent histological analysis. The other half was again divided in half, one half prepared for Transmission Electron Microscopy. […]

[6] = Animal IBT4 treated eye, after the named step of the sequence Proparacaine, GA, AA #1, AA #2, decorin, Initial 4.0
[7] = Animal QKU8 treated eye, no decorin, after the named step of the sequence, Initial 7.0
[8] = Animal QKU8 treated eye, after the named step of the sequence, Initial 6.4
[9] = Animal QNO6 treated eye, no decorin, after the named step of the sequence, Initial 6.3
[10] = Animal AHH3, after the named step of Proparacaine HCL, acetic anhydride, decorin, Initial 8.75
[11] = Animal QJD4, after the named step of Proparacaine HCL, acetic anhydride, decorin, Initial 6.9
[12] = Animal RAF6, after the named step of Proparacaine HCL, acetic anhydride, decorin, Initial 5.88

Molecule: CCCOc1ccc(C(=O)OCCN(CC)CC)cc1N [Proparacaine, Proparacaine HCl, reference compound]
- Corneal Hysteresis (CH) [1, 6]: 7.0
- Corneal Hysteresis (CH) [1, 7]: 7.5
- Corneal Hysteresis (CH) [1, 8]: 8.0
- Corneal Hysteresis (CH) [1, 9]: 7.0

Molecule: CC(=O)OC(C)=O [acetic anhydride]
- Corneal Hysteresis (CH) ([1]; Animal IBT4 treated eye, Post-AA #2 (second acetic anhydride treatment), Initial 4.0): 3.9
- Corneal Hysteresis (CH) [1, 6]: 3.2
- Corneal Hysteresis (CH) [1, 7]: 5.7
- Corneal Hysteresis (CH) ([1]; Animal QKU8 treated eye, Post-AA #2, Initial 6.4): 6.7
- Corneal Hysteresis (CH) ([1]; Animal QKU8 treated eye, Post-AA #2, Initial 7.0): 4.8
- Corneal Hysteresis (CH) [1, 8]: 7.0
- Corneal Hysteresis (CH) [1, 9]: 5.7
- Corneal Hysteresis (CH) ([1]; Animal QNO6 treated eye, Post-AA #2, Initial 6.3): 3.8
- Corneal Hysteresis (CH) [2, 10]: 5.73
- Corneal Hysteresis (CH) [2, 11]: 3.9
- Corneal Hysteresis (CH) [2, 12]: 4.15
- disruption of epithelial cell junctures permitting diffusion of human recombinant decorin [3]: successfully disrupted the epithelial cell junctures

Molecule: C[C@@H]1CC[C@@]2(OC1)O[C@H]1[C@@H](O)[C@H]3[C@@H]4CC[C@H]5C[C@@H](O[C@@H]6O[C@H](CO)[C@H](O[C@@H]7O[C@H](CO)[C@@H](O)[C@H](O[C@@H]8OC[C@@H](O)[C@H](O)[C@H]8O)[C@H]7O[C@@H]7O[C@H](CO)[C@H](O)[C@H](O[C@@H]8O[C@H](CO)[C@@H](O)[C@H](O)[C@H]8O)[C@H]7O)[C@H](O)[C@H]6O)[C@H](O)C[C@]5(C)[C@H]4CC[C@]3(C)[C@H]1[C@@H]2C [digitonin]
- effect of pretreating cornea on drug penetration ([4]; Shih and Lee): enhance penetration of timolol
- effect of pretreating cornea on epithelium layers ([4]; Shih and Lee): exfoliate the top 2 layers of epithelium

Molecule: cetylpyridium chloride
- effect on corneal epithelium ([4]; 0.02%, Godbey): disrupted the top layers of epithelial cells

Molecule: O=C1CCCC(=O)O1 [glutaric anhydride]
- Corneal Hysteresis (CH) [1, 6]: 3.3
- Corneal Hysteresis (CH) [1, 7]: 6.4
- Corneal Hysteresis (CH) [1, 8]: 5.3
- Corneal Hysteresis (CH) [1, 9]: 6.4
- disruption of epithelial cell junctures permitting diffusion of human recombinant decorin [3]: successfully disrupted the epithelial cell junctures

B1: human recombinant decorin: Human recombinant Decorin prepared from CHO-S cells, MW approximately 40,000 daltons; stabilization molecule (small leucine-rich proteoglycan) (protein, UniProt P07585 31-359, looked up)
Decorin: DEASGIGPEVPDDRDFEPSLGPVCPFRCQCHLRVVQCSDLGLDKVPKDLPPDTTLLDLQNNKITEIKDGDFKNLKNLHALILVNNKISKVSPGAFTPLVKLERLYLSKNQLKELPEKMPKTLQELRAHENEITKVRKVTFNGLNQMIVIELGTNPLKSSGIENGAFQGMKKLSYIRIADTNITSIPQGLPPSLTELHLDGNKISRVDAASLKGLNNLAKLGLSFNSISAVDNGSLANTPHLRELHLDNNKLTRVPGGLAEHKYIQVVYLHNNNISVVGSSDFCPPGHNTKKASYSGVSLFSNPVQYWEIQPSTFRCVYVRSAIQLGNYK
- Corneal Hysteresis (CH) [1, 6]: 4.6
- Corneal Hysteresis (CH) [1, 8]: 7.9
- change of corneal hysteresis (CH), in words ([1]; Feline Study #1, sequential acylation then decorin): increased CH values to levels greater than initial values
- Corneal Hysteresis (CH) [2, 10]: 7.3
- Corneal Hysteresis (CH) ([2]; Animal BEA4, no acylation agent, 4 mm trephine through epithelium, Initial 3.65): 4.8
- Corneal Hysteresis (CH) ([2]; Animal IRH6, no acylation agent, 4 mm trephine through epithelium, Initial 7.98): 8.03
- Corneal Hysteresis (CH) [2, 11]: 6.3
- Corneal Hysteresis (CH) [2, 12]: 5.18
- change of CH values, in words ([2]; Feline Study #2, acylation agent treated cornea): increased CH values
- change of CH values, in words ([2]; Feline Study #2, trephined but not acylation agent treated cornea): minimal increase in CH values
- decorin penetration into cornea ([3]; control cornea, epithelial cell junctures not disrupted, applied directly to central cornea): limited to the epithelium
- decorin penetration into cornea ([3]; cornea pretreated with acetic anhydride (3 μL) for 30 seconds): penetrated the corneal stroma
- decorin penetration into cornea ([3]; cornea pretreated with glutaric anhydride 5 mg/mL for 30 seconds): penetrated the corneal stroma
- molecular bridges (links between fibers) between collagen fibers, TEM [5]: increase in molecular bridges
